Converted amounts (≈) assume the structure as drawn. The source made the active and inactive calls. The rule behind the calls is not given here.
Tests used:
Assay type in all cases: functional
HeLa = experiment: Cytotoxicity against human HeLa cells at 10 ug/ml by MTT assay
WiDr = experiment: Cytotoxicity against human WiDr cells at 10 ug/ml by MTT assay
Daoy = experiment: Cytotoxicity against human Daoy cells

SMILES | inhibition at 10 µg/mL (HeLa) | inhibition at 10 µg/mL (WiDr) | Activity (Daoy) | EC50 (Daoy; read-out: ED50 (the source's name))
C/C1=C/C(=O)CC2=C[C@@H](OC2=O)[C@H](C(C)C)CC(=O)/C(C)=C/CC1 [SARCOSTOLIDE D] | 11.1% | 29.1% | inactive | –
C/C1=C/C=C/[C@H](C)C(=O)C[C@H](C(C)C)[C@H]2C=C(CC(=O)C1)C(=O)O2 [SARCOSTOLIDE E] | 16.8% | 27.5% | – | 5.5 mg/L (≈ 16.6 µM)
C/C1=C\CC[C@@H](C)CC(=O)CC2=C[C@@H](OC2=O)[C@@H](C(C)C)CC1=O [SARCOSTOLIDE G] | 18.4% | 20.1% | inactive | –
C/C1=C/C(=O)CC2=C[C@@H](OC2=O)[C@@H](C(C)C)CC(=O)/C(C)=C/CC1 [SARCOSTOLIDE B] | 5.88% | 8.31% | inactive | –
C/C1=C/CC/C(C)=C/C(=O)CC2=C[C@@H](OC2=O)[C@@H](C(C)C)CC1=O [SARCOSTOLIDE A] | 22.3% | 20% | inactive | –
C/C1=C/C/C=C(\C)C(=O)C[C@H](C(C)C)[C@H]2C=C(CC(=O)C1)C(=O)O2 [SARCOSTOLIDE F] | 7.32% | 29.8% | inactive | –
C/C1=C\C(=O)CC2=C[C@@H](OC2=O)[C@@H](C(C)C)CC(=O)/C(C)=C/CC1 [SARCOSTOLIDE C] | 1.65% | 19.4% | inactive | –
